In the supplement of paper PMC10307832:

Tests used:
Experiment in all cases: relative viability (nuclei count vs DMSO), 5 days (fraction); higher = more cells survive
Masitinib + Pemetrexed = compound: Cc1ccc(NC(=O)c2ccc(CN3CCN(C)CC3)cc2)cc1Nc1nc(-c2cccnc2)cs1 [Masitinib] + Nc1nc2[nH]cc(CCc3ccc(C(=O)N[C@@H](CCC(=O)O)C(=O)O)cc3)c2c(=O)[nH]1 [Pemetrexed] (partner 0.2 µM)
Summary of the method: (§1)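 After 5 days of treatment, lung cancer cells in 1536-well plates were fixed and stained in a single step (final 0.05% Triton X-100, 1% formaldehyde, 1 ug/ml Hoechst) and their nuclei counted on 4× images. Treatment had been applied by pin tool the day after seeding as one drug alone or as a fixed anchor-drug dose with five library-drug doses (not always all listed) in √10 steps. Relative viability is the nuclei count of treated wells divided by that of vehicle wells, and values are medians of duplicate plates.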

Masitinib + Olaparib = compound: Cc1ccc(NC(=O)c2ccc(CN3CCN(C)CC3)cc2)cc1Nc1nc(-c2cccnc2)cs1 [Masitinib] + O=C(c1cc(Cc2n[nH]c(=O)c3ccccc23)ccc1F)N1CCN(C(=O)C2CC2)CC1 [Olaparib] (partner 8 µM)
Summary of the method: as §1

[1] = compound: CC1=CC(=CC=C1)NC2=NC(=CS2)C3=CC=NC=C3 + C[C@]1(O)C[C@@H](c2nc(-c3ccc4ccc(-c5ccccc5)nc4c3)c3c(N)nccn32)C1 [Linsitinib] (partner 1 µM)
Summary of the method: as §1

Masitinib + Crizotinib = compound: Cc1ccc(NC(=O)c2ccc(CN3CCN(C)CC3)cc2)cc1Nc1nc(-c2cccnc2)cs1 [Masitinib] + C[C@@H](Oc1cc(-c2cnn(C3CCNCC3)c2)cnc1N)c1c(Cl)ccc(F)c1Cl [Crizotinib] (partner 1 µM)
Summary of the method: as §1

| Cell Line | relative viability (Masitinib + Pemetrexed; first compound 0.01 µM) | relative viability (Masitinib + Pemetrexed; first compound 0.03162 µM) | relative viability (Masitinib + Pemetrexed; first compound 0.1 µM) | relative viability (Masitinib + Pemetrexed; first compound 0.3162 µM) | relative viability (Masitinib + Pemetrexed; first compound 1 µM) | relative viability (Masitinib + Olaparib; first compound 0.01 µM) | relative viability (Masitinib + Olaparib; first compound 0.03162 µM) | relative viability (Masitinib + Olaparib; first compound 0.1 µM) | relative viability (Masitinib + Olaparib; first compound 0.3162 µM) | relative viability (Masitinib + Olaparib; first compound 1 µM) | relative viability ([1]; first compound 0.08 µM) | relative viability ([1]; first compound 0.253 µM) | relative viability ([1]; first compound 0.8 µM) | relative viability ([1]; first compound 2.53 µM) | relative viability ([1]; first compound 8 µM) | relative viability (Masitinib + Crizotinib; first compound 0.01 µM) | relative viability (Masitinib + Crizotinib; first compound 0.03162 µM) | relative viability (Masitinib + Crizotinib; first compound 0.1 µM) | relative viability (Masitinib + Crizotinib; first compound 0.3162 µM) | relative viability (Masitinib + Crizotinib; first compound 1 µM) |
| --- | --- | --- | --- | --- | --- | --- | --- | --- | --- | --- | --- | --- | --- | --- | --- | --- | --- | --- | --- | --- |
| PC-14 | 0.137 | 0.144 | 0.13 | 0.12 | 0.141 | 0.277 | 0.256 | 0.249 | 0.232 | 0.204 | 0.858 | 0.944 | 0.86 | 1.01 | 0.844 | 0.787 | 0.817 | 0.901 | 0.723 | 0.829 |
| NCI-H1792 | 0.846 | 0.525 | 0.93 | 0.548 | 0.707 | 0.528 | 0.257 | 0.303 | 0.377 | 0.396 | 0.322 | 0.33 | 0.389 | 0.377 | 0.398 | 0.866 | 0.449 | 0.993 | 0.829 | 1.05 |
| HCC-78 | 0.933 | 0.877 | 0.887 | 0.987 | 0.893 | 0.798 | 0.855 | 0.871 | 0.712 | 0.824 | 0.398 | 0.506 | 0.542 | 0.423 | 0.63 | 0.356 | 0.445 | 0.334 | 0.288 | 0.293 |
| IA-LM |  |  |  |  |  | 0.896 | 0.875 | 0.929 | 0.796 | 0.836 | 0.489 | 0.49 | 0.692 | 0.308 | 0.549 |  |  | 0.871 | 0.618 | 0.84 |
| NCI-H441 | 0.261 | 0.273 | 0.244 | 0.261 | 0.256 | 0.53 | 0.403 | 0.602 | 0.586 | 0.553 | 0.497 | 0.574 | 0.708 | 0.523 | 0.497 | 0.741 | 0.804 | 0.919 | 0.665 | 0.696 |
| NCI-H322M | 0.606 | 0.594 | 0.625 | 0.615 | 0.582 | 0.733 | 0.726 | 0.857 | 0.729 | 0.128 | 0.832 | 0.937 | 0.791 | 1.12 | 0.771 | 0.745 | 0.956 | 1.02 | 0.9 | 0.873 |
| LU99A | 0.158 | 0.21 | 0.16 | 0.181 | 0.219 | 0.27 | 0.276 | 0.246 | 0.255 | 0.269 |  | 0.669 | 0.532 | 0.554 | 0.538 | 0.592 | 0.629 | 0.62 | 0.639 | 0.527 |
| NCI-H1299 |  |  |  |  |  | 0.936 | 0.988 | 0.993 | 1.06 | 0.846 | 0.93 | 0.985 | 0.936 | 0.928 | 0.928 | 0.947 | 0.989 | 1.02 | 1.01 | 0.96 |
| NCI-H1703 |  |  |  |  |  | 0.308 | 0.267 | 0.231 | 0.174 | 0.277 | 0.733 | 0.632 | 0.64 | 0.732 | 0.555 | 0.483 | 0.758 | 0.293 | 0.492 | 0.139 |
| ChaGo-K-1 | 0.251 | 0.274 | 0.258 | 0.248 | 0.251 | 0.39 | 0.435 | 0.405 | 0.35 | 0.392 |  |  |  |  |  | 1.33 | 1.12 | 1.51 | 1.05 | 1.12 |
| NCI-H522 | 1.13 | 0.935 | 0.95 | 0.841 | 0.997 | 0.609 | 0.766 | 0.66 | 0.534 | 0.619 |  |  |  |  |  |  |  |  |  |  |
| NCI-H1648 | 0.635 | 0.891 | 0.75 |  | 0.7 | 1.04 | 0.78 | 1.08 |  | 0.96 |  |  |  |  |  |  |  |  |  |  |
| NCI-H1793 | 0.992 | 0.737 | 1 | 0.835 | 0.742 | 0.893 | 0.777 | 1.04 | 1.08 | 0.768 |  | 0.763 | 0.92 | 0.753 | 0.825 |  |  |  |  |  |
| NCI-H1563 | 0.714 | 0.741 | 0.835 | 0.729 | 0.701 |  |  |  |  |  | 1.11 | 1.12 | 1.19 | 1.29 | 1.18 | 0.833 | 0.865 | 0.907 | 0.814 | 0.868 |
| NCI-H2342 | 0.741 | 0.72 | 0.831 | 0.746 | 0.781 | 0.447 | 0.485 | 0.425 | 0.44 | 0.36 |  |  |  |  |  |  |  |  |  |  |
| SW 900 | 0.462 | 0.47 | 0.451 | 0.478 | 0.452 | 0.809 | 0.878 | 0.918 | 0.684 | 0.966 |  |  |  |  |  |  |  |  |  |  |
| NCI-H1395 | 1.02 | 0.872 | 1.02 | 0.965 | 0.717 | 0.473 | 0.465 | 0.471 | 0.422 | 0.432 | 0.999 | 0.949 | 1.01 | 0.932 | 0.903 |  |  |  |  |  |
| A549 |  |  |  |  |  | 0.363 | 0.184 | 0.338 | 0.301 | 0.325 | 0.486 | 0.684 | 0.619 | 0.532 | 0.562 | 0.666 | 0.805 | 0.823 | 0.686 | 0.722 |
| NCI-H727 |  |  |  |  |  | 0.76 | 0.774 | 0.686 | 0.819 | 0.676 | 0.283 | 0.283 | 0.268 | 0.199 | 0.343 | 0.824 | 0.844 | 0.925 | 0.778 | 0.91 |
| NCI-H1650 | 0.389 | 0.49 | 0.395 | 0.365 | 0.374 | 0.675 | 0.711 | 0.751 | 0.614 | 0.884 |  |  |  |  |  | 0.958 | 1.09 | 0.876 | 0.862 | 1.02 |
| ABC-1 |  |  |  |  |  | 0.727 | 1.39 | 0.844 | 0.67 | 0.78 | 0.758 | 0.708 | 0.584 | 0.642 | 0.709 | 0.965 | 1.17 | 1.15 | 1.12 | 1.18 |
